Experimental data as given in patent US20230405136A1, “New Combinations of Boron Compounds and Adjuvants for the Treatment of Pathophysiological Conditions and Cancer and for Muscle Regeneration” (Consorcio Centro De Investigacion Biomedica En Red, M.P., priority 2020, published 2023).

Columns and labels:
Assay type in all cases: cell-based
[1] = system: human DM1 cells; test: Myotube formation (sarcomeric α-actinin immunofluorescence) in DM1 muscle cells; settings: 8 days
Procedure: (§1) Briefly, the aforementioned cells (DMD, DM1 and WT) were cultured and maintained in 75 cm 2 flasks with skeletal growth medium (Promocell skeletal muscle cell basal medium supplemented with growth factors, calf serum and P/S 1%) at 37° C. in a humidified atmosphere of 5% CO2, until 80% confluence. […] After incubation with the FN coating for 1 h at RT, cells were then seeded at 40.000 cells/well (p-24 plate) in skeletal muscle cell basal medium.
(§2) For the examples where a boron compound was added, after the previous step, different amounts of the boron compound were added in the culture medium, Promocell skeletal muscle cell basal medium).
(§3) After 24 h of culture growth medium was changed by myoblast differentiation medium (DMEM high glucose/P/S 1%, insulin 10 μg/mL) and for the examples where the boron compound was added, then different amounts of boron compound were added. Differentiation medium was changed every 2 days and if necessary, the same amount of the boron compound, as previously incorporated was also added in every change. Myotube formation was evaluated after 8 days.
(§4) Cells were fixed with formalin 4% at the end of the culture for 30 minutes at 4° C. After fixing, cells were washed and conserved at 4° C. in DPBS. Starting with the fixed cells preserved at 4° C. in DPBS, samples were then rinsed with DPBS and permeabilised with DPBS/0.5% Triton X-100 at room temperature for 5 min. Samples were then incubated with sarcomeric α-actinin primary antibody (abcam, 1:200), muscle marker for immunofluorescence detection, in blocking buffer DPBS/2% BSA at 37° C. for 1 h or overnight at 4° C. The samples were then rinsed twice in DPBS/0.1% Triton X-100 and incubated with the secondary antibody anti mouse Cy3 (Invitrogen, 1:200) in blocking buffer at room temperature for 1 h. Finally, samples were washed twice in DPBS/0.1% Triton X-100 before mounting with Vectashield containing DAPI (Vector Laboratories) and observed under an epifluorescence microscope (Nikon Eclipse 80i).
(§5) Cells were cultured and maintained in 75 cm^2 flasks with skeletal growth medium (Promocell skeletal muscle cell basal medium supplemented with growth factors, calf serum and P/S 1%) at 37° C. in a humidified atmosphere of 5% CO2, until 80% confluence. […] After incubation with the FN coating for 1 h at RT, cells were then seeded at 40,000 cells/well (p-24 plate) in Promocell skeletal muscle cell basal medium. After 24 h of culture, growth medium was changed by myoblast differentiation medium (DMEM high glucose/P/S 1%, insulin 10 μg/mL) and different amounts of bortezomib 5.4 10^−6 μg (0.0000054 μg) Ex 1.1, 2.7 10^−5 μg (0.000027 μg) Ex 1.2, 5.4 10^−5 μg (0.000054 μg) Ex 1.3, and 1.1 10^−4 μg (0.00011 μg) Ex 1.4 (all non-cytotoxic concentrations) were added to each sample in the culture medium. Differentiation medium was changed every 2 days and the different amounts of bortezomib 5.4 10^−6 μg, 2.7 10^−5 μg, 5.4 10^−5 μg and 1.1 10^−4 μg, were added to each sample in every change. Myotube formation was evaluated after 8 days. Cells were fixed as described in the control samples. Afterwards, the samples were also rinsed and washed as described in the control samples. […]

[2] = system: human DMD cells; test: Myotube formation (sarcomeric α-actinin immunofluorescence) in DMD muscle cells; settings: 8 days
Procedure: as §1, §2, §3, §4, §5

[3] = system: human wild type (WT) cells; test: Myotube formation (sarcomeric α-actinin immunofluorescence) in wild type muscle cells; settings: 8 days
Procedure: as §1, §2, §3, §4, §5

[4] = system: human WT, DMD and DM1 cells; test: Myotube formation, across WT, DMD and DM1 cells
Procedure: Briefly, the aforementioned cells (DMD, DM1 and WT) were cultured and maintained in 75 cm 2 flasks with skeletal growth medium (Promocell skeletal muscle cell basal medium supplemented with growth factors, calf serum and P/S 1%) at 37° C. in a humidified atmosphere of 5% CO2, until 80% confluence. Glass cover slip substrates (12 mm diameter) were sterilised with UV light for 30 min and then coated with 3.6 μg of fibronectin (FN). After incubation with the FN coating for 1 h at RT, cells were then seeded at 40.000 cells/well (p-24 plate) in skeletal muscle cell basal medium.
as §2, §3
Cells were fixed with formalin 4% at the end of the culture for 30 minutes at 4° C. After fixing, cells were washed and conserved at 4° C. in DPBS. Starting with the fixed cells preserved at 4° C. in DPBS, samples were then rinsed with DPBS and permeabilised with DPBS/0.5% Triton X-100 at room temperature for 5 min. Samples were then incubated with sarcomeric α-actinin primary antibody (abcam, 1:200), muscle marker for immunofluorescence detection, in blocking buffer DPBS/2% BSA at 37° C. for 1 h or overnight at 4° C. […]
Cells were cultured and maintained in 75 cm^2 flasks with skeletal growth medium (Promocell skeletal muscle cell basal medium supplemented with growth factors, calf serum and P/S 1%) at 37° C. in a humidified atmosphere of 5% CO2, until 80% confluence. […] Myotube formation was evaluated after 8 days. […]

[5] = system: human DMD cells; test: Myotube formation (sarcomeric α-actinin immunofluorescence) in DMD muscle cells; settings: 8 days; remark: listed apart in the source
[6] = DM1, without fibronectin, bortezomib 1.1 10^−4 μg
[7] = DM1, without fibronectin, bortezomib 2.7 10^−5 μg
[8] = DM1, without fibronectin, bortezomib 5.4 10^−5 μg
[9] = DM1, without fibronectin, bortezomib 5.4 10^−6 μg
[10] = DM1-FN, with fibronectin (3.6 μg coating), bortezomib 1.1 10^−4 μg
[11] = DM1-FN, with fibronectin (3.6 μg coating), bortezomib 2.7 10^−5 μg
[12] = DM1-FN, with fibronectin (3.6 μg coating), bortezomib 5.4 10^−5 μg
[13] = DM1-FN, with fibronectin (3.6 μg coating), bortezomib 5.4 10^−6 μg
[14] = DMD, without fibronectin, bortezomib 2.7 10^−5 μg
[15] = DMD-FN, with fibronectin (3.6 μg coating), bortezomib 1.1 10^−4 μg
[16] = DMD-FN, with fibronectin (3.6 μg coating), bortezomib 2.7 10^−5 μg
[17] = DMD-FN, with fibronectin (3.6 μg coating), bortezomib 5.4 10^−5 μg
[18] = DMD-FN, with fibronectin (3.6 μg coating), bortezomib 5.4 10^−6 μg
[19] = WT, without fibronectin, bortezomib 1.1 10^−4 μg
[20] = WT, without fibronectin, bortezomib 2.7 10^−5 μg
[21] = WT, without fibronectin, bortezomib 5.4 10^−5 μg
[22] = WT, without fibronectin, bortezomib 5.4 10^−6 μg
[23] = WT-FN, with fibronectin (3.6 μg coating), bortezomib 1.1 10^−4 μg
[24] = WT-FN, with fibronectin (3.6 μg coating), bortezomib 2.7 10^−5 μg
[25] = WT-FN, with fibronectin (3.6 μg coating), bortezomib 5.4 10^−5 μg
[26] = WT-FN, with fibronectin (3.6 μg coating), bortezomib 5.4 10^−6 μg
[27] = bortezomib added in the culture medium, 8 days
[28] = DMD, without fibronectin, bortezomib 1.1 10^−4 μg
[29] = DMD, without fibronectin, bortezomib 5.4 10^−5 μg
[30] = DMD, without fibronectin, bortezomib 5.4 10^−6 μg

Structure (SMILES): CC(C)C[C@H](NC(=O)[C@H](Cc1ccccc1)NC(=O)c1cnccn1)B(O)O [bortezomib, ((R)-3-Methyl-1-((S)-3-phenyl-2-(pyrazine-2-carboxamido)propanamido)butyl)boronic acid]
- % of cell differentiation [1, 6]: 1%
- myotube diameter [1, 6]: 4 μm
- % of cell differentiation [1, 7]: 13%
- myotube diameter [1, 7]: 11 μm
- % of cell differentiation [1, 8]: 0.5%
- myotube diameter [1, 8]: 4 μm
- % of cell differentiation [1, 9]: 14%
- myotube diameter [1, 9]: 11 μm
- % of cell differentiation [1, 10]: 1%
- myotube diameter [1, 10]: 23 μm
- % of cell differentiation [1, 11]: 55%
- myotube diameter [1, 11]: 79 μm
- % of cell differentiation [1, 12]: 54%
- myotube diameter [1, 12]: 130 μm
- % of cell differentiation [1, 13]: 37%
- myotube diameter [1, 13]: 44 μm
- % of cell differentiation [2, 14]: 31%
- % of cell differentiation [2, 15]: 17%
- myotube diameter [2, 15]: 17 μm
- myotube diameter [2, 16]: 72 μm
- % of cell differentiation [2, 17]: 61%
- % of cell differentiation [2, 18]: 47%
- myotube diameter [2, 18]: 45 μm
- % of cell differentiation [3, 19]: 0%
- myotube diameter [3, 19]: 0 μm
- % of cell differentiation [3, 20]: 55%
- myotube diameter [3, 20]: 60 μm
- % of cell differentiation [3, 21]: 45%
- myotube diameter [3, 21]: 48 μm
- % of cell differentiation [3, 22]: 47%
- myotube diameter [3, 22]: 32 μm
- % of cell differentiation [3, 23]: 39%
- myotube diameter [3, 23]: 63 μm
- % of cell differentiation [3, 24]: 79%
- myotube diameter [3, 24]: 319 μm
- % of cell differentiation [3, 25]: 72%
- myotube diameter [3, 25]: 270 μm
- % of cell differentiation [3, 26]: 70%
- myotube diameter [3, 26]: 122 μm
- myotube diameter [4, 27]: importantly increased myotube diameter
- myotube differentiation [4, 27]: enhanced myotube differentiation
- myotube formation and diameter ([4]; dystrophic cells, bortezomib together with FN): restored myotube formation (fusion capability) and improved myotube diameter
- % of cell differentiation [5, 28]: 1%
- myotube diameter [5, 28]: 2 μm
- myotube diameter [5, 14]: 27 μm
- % of cell differentiation [5, 29]: 5%
- myotube diameter [5, 29]: 5 μm
- % of cell differentiation [5, 30]: 9%
- myotube diameter [5, 30]: 15 μm
- % of cell differentiation [5, 16]: 80%
- myotube diameter [5, 17]: 46 μm
